Reference: PMC10281575, “PfCRT mutations conferring piperaquine resistance in falciparum malaria shape the kinetics of quinoline drug binding and transport” (PLOS Pathogens, 2023)
Values joined by “and” are separate entries in the source; they are usually repeats but may differ in a detail not shown here. Equal values may be shown once.

Target: T1, PfCRT^Dd2_F145I (Plasmodium falciparum, UniProt Q8IBZ9, A220S/F145I/I356T/K76T/M74I/N326S/N75E/Q271E/R371I)
T1 construct: expressed in transfected cells; host or cells: Xenopus laevis oocytes injected with in vitro transcribed RNA (pSP64T)
T1 sequence (Q8IBZ9 1-424 M74I/N75E/K76T/F145I/A220S/Q271E/N326S/I356T/R371I): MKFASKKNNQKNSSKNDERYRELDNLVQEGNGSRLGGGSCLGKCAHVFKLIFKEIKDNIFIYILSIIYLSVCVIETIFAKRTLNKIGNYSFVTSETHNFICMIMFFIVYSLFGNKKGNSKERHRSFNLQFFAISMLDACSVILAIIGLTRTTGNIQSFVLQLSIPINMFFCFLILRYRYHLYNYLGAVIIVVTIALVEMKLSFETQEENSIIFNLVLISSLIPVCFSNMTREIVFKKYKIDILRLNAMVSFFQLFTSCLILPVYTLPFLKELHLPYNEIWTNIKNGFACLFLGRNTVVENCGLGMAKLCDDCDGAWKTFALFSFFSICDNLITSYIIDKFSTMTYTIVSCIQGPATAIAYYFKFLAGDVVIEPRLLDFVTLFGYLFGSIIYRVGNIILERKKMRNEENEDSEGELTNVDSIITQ
Experiment: Competition plot (Vtotal versus proportion of PPQ in CQ/PPQ mixtures), PfCRT^Dd2_F145I
Format: cell-based
Settings: for competition plot result (binding sites): CQ/PPQ mixtures, Vtotal dependent on P
Method: To test this hypothesis, we performed competition plot experiments, in which the enzyme or carrier is exposed to substrate mixtures that give the same transport rate for different substrates. The experiment is performed with substrate A labeled and then repeated with substrate B labeled. […] Similar results were found for PfCRT^Dd2_F145I.
Fig 3 Competition plot of the interaction of PfCRT^Dd2 (A) and PfCRT^Dd2_F145I (B) with CQ and PPQ. The competition plot tests whether two substrates bind to the same site or distinct sites on an enzyme or transporter. A competitive reaction would yield data points that lie on a horizontal line, whereas allosteric interactions would reveal a curved relationship. PfCRT-mediated drug uptake was measured from mixtures of radiolabeled CQ and PPQ that combined yielded an uptake close to saturation (Vtotal). Vtotal was subsequently analyzed as a function of the proportion of PPQ in the mixture (P). For more details see Materials and Methods. The mean ± SEM of at least 3 independent biological replicates are shown.
The competition plot was performed as described elsewhere. Briefly, a concentration of CQ and a concentration of PPQ were selected (using the parameters from Table 1), such that (i) the rate of PPQ transport was equivalent to the rate of CQ transport, and (ii) the transport rate for CQ (the less efficiently transported substrate) approached its Vmax. The resulting concentrations for PfCRT^Dd2 were [CQ]^max = 400 μM and [PPQ]^max = 23.1 μM. At these concentrations of CQ and PPQ, the expected uptake is 19.8 pmol h^-1 oocyte^-1. The resulting concentrations for PfCRT^Dd2_F145I were [CQ]^max = 400 μM and [PPQ]^max = 18.2 μM. At these concentrations of CQ and PPQ, the expected uptake is 18.2 pmol h^-1 oocyte^-1. A series of reaction buffers containing CQ and PPQ at concentrations [CQ] = (1—P) x [CQ]^max and [PPQ] = P x [PPQ]^max were assembled, where P is the proportion of PPQ in the mixture. […] These corresponded to values of P equal to 0, 0.25, 0.5, 0.75, 0.9 and 1. A plot of Vtotal as a function of P yielded the competition plots. If both substrates bind to the same site, then a constant Vtotal is expected across all P values (e.g. data lies on a horizontal line). If the substrates bind to different sites, and they inhibit each other’s transport, it is expected that the curve is concave with either a minimum or a maximum.

[1] = CQ/PPQ mixture, P = 0.25, single replicates
[2] = CQ/PPQ mixture, P = 0.5, single replicates
[3] = CQ/PPQ mixture, P = 0.75, single replicates
[4] = CQ/PPQ mixture, P = 0.9, single replicates

For CCN(CC)CCCC(C)Nc1ccnc2cc(Cl)ccc12 (stereo not drawn) [CQ, chloroquine], the “PfCRTDd2_F145I-mediated CQ transport P = 0” value (CQ/PPQ mixture, P = 0, single replicates) was 14.23 pmol oocyte-1 h-1 and 18.19 pmol oocyte-1 h-1 and 22.31 pmol oocyte-1 h-1, the “PfCRTDd2_F145I-mediated CQ transport P = 0.25” value [1] was 16.38 pmol oocyte-1 h-1 and 14.89 pmol oocyte-1 h-1 and 14.95 pmol oocyte-1 h-1 and the “PfCRTDd2_F145I-mediated CQ transport P = 0.5” value [2] was 11.20 pmol oocyte-1 h-1 and 13.42 pmol oocyte-1 h-1 and 11.66 pmol oocyte-1 h-1. For the same compound, the “PfCRTDd2_F145I-mediated CQ transport P = 0.75” value [3] was 8.54 pmol oocyte-1 h-1 and 5.74 pmol oocyte-1 h-1 and 7.98 pmol oocyte-1 h-1, the “PfCRTDd2_F145I-mediated CQ transport P = 0.9” value [4] was 3.23 pmol oocyte-1 h-1 and 2.52 pmol oocyte-1 h-1 and the “competition plot result (binding sites)” value was “occupy different domains”.
For Clc1ccc2c(N3CCN(CCCN4CCN(c5ccnc6cc(Cl)ccc56)CC4)CC3)ccnc2c1 [PPQ, piperaquine], the “PfCRTDd2_F145I-mediated PPQ transport P = 0.25” value [1] was 3.27 pmol oocyte-1 h-1 and 3.77 pmol oocyte-1 h-1 and 3.82 pmol oocyte-1 h-1, the “PfCRTDd2_F145I-mediated PPQ transport P = 0.5” value [2] was 7.53 pmol oocyte-1 h-1 and 7.99 pmol oocyte-1 h-1 and 8.13 pmol oocyte-1 h-1 and the “PfCRTDd2_F145I-mediated PPQ transport P = 0.75” value [3] was 12.62 pmol oocyte-1 h-1 and 13.41 pmol oocyte-1 h-1 and 10.66 pmol oocyte-1 h-1. The “PfCRTDd2_F145I-mediated PPQ transport P = 0.9” value [4] was 15.10 pmol oocyte-1 h-1 and 16.36 pmol oocyte-1 h-1 and 16.00 pmol oocyte-1 h-1, the “PfCRTDd2_F145I-mediated PPQ transport P = 1” value (CQ/PPQ mixture, P = 1, single replicates) was 16.57 pmol oocyte-1 h-1 and 18.61 pmol oocyte-1 h-1 and 20.05 pmol oocyte-1 h-1 and the “competition plot result (binding sites)” value was “occupy different domains”.
